Results taken from patent publication US11912703B2, “6-azaindole compounds” (BRISTOL-MYERS SQUIBB COMPANY, priority 2017, dated 2024).
pIC50: −log10 of the molar value. Like-named read-outs stand apart in the source and are kept apart here.

Assays:
human TLR7 = human TLR7 (Homo sapiens (Human), UniProt Q9NYK1); assay: TLR7 inhibition reporter assay (HEK-Blue SEAP); type: cell-based; conditions: HEK-Blue cells overexpressing human TLR7, gardiquimod 7.5 μM stimulation
Experimental: HEK-Blue™-cells (Invivogen) overexpressing human TLR7, TLR8 or TLR9 receptors were used for screening inhibitors of these receptors using an inducible SEAP (secreted embryonic alkaline phosphatase) reporter gene under the control of the IFN-β minimal promoter fused to five NF-κB and AP-1-binding sites. Briefly, cells are seeded into Greiner 384 well plates (15000 cells per well for TLR7, 20,000 for TLR8 and 25,000 for TLR9) and then treated with test compounds in DMSO to yield a final dose response concentration range of 0.05 nM-50 μM. After a 30 minute compound pre-treatment at room temperature, the cells are then stimulated with a TLR7 ligand (gardiquimod at a final concentration of 7.5 μM), TLR8 ligand (R848 at a final concentration of 15.9 μM) or TLR9 ligand (ODN2006 at a final concentration of 5 nM) to activate NF-κB and AP-1 which induce the production of SEAP. After a 22 hour incubation at 37° C., 500 CO2, SEAP levels are determined with the addition of HEK-Blue™ Detection reagent (Invivogen), a cell culture medium that allows for detection of SEAP, according to manufacturer's specifications.

human TLR8 = human TLR8 (Homo sapiens (Human), UniProt Q9NR97); assay: TLR8 inhibition reporter assay (HEK-Blue SEAP);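 note: SEAP driven by IFN-β minimal promoter with five NF-κB and AP-1 sites, compounds tested 0.05 nM to 50 µM, 22 h incubation, inhibition relative to agonist plus DMSO wells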
human TLR9 = human TLR9 (Homo sapiens (Human), UniProt Q9NR96); assay: TLR9 inhibition reporter assay (HEK-Blue SEAP);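 note: SEAP driven by IFN-β minimal promoter carrying five NF-κB and AP-1 sites, 22 h at 37 °C, compounds 0.05 nM–50 µM, inhibition scaled between agonist-plus-DMSO and reference-inhibitor wells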
[1] = read-out: TLR8 IC50; HEK-Blue cells overexpressing human TLR8, R848 15.9 μM stimulation, SEAP reporter
[2] = read-out: TLR9 IC50; HEK-Blue cells overexpressing human TLR9, ODN2006 5 nM stimulation, SEAP reporter
[3] = read-out: TLR8 IC50; HEK-Blue cells overexpressing human TLR8; R848 15.9 μM stimulation; SEAP reporter
[4] = read-out: TLR9 IC50; HEK-Blue cells overexpressing human TLR9; ODN2006 5 nM stimulation; SEAP reporter

Sequence of human TLR9 (Q9NR96 26-1032): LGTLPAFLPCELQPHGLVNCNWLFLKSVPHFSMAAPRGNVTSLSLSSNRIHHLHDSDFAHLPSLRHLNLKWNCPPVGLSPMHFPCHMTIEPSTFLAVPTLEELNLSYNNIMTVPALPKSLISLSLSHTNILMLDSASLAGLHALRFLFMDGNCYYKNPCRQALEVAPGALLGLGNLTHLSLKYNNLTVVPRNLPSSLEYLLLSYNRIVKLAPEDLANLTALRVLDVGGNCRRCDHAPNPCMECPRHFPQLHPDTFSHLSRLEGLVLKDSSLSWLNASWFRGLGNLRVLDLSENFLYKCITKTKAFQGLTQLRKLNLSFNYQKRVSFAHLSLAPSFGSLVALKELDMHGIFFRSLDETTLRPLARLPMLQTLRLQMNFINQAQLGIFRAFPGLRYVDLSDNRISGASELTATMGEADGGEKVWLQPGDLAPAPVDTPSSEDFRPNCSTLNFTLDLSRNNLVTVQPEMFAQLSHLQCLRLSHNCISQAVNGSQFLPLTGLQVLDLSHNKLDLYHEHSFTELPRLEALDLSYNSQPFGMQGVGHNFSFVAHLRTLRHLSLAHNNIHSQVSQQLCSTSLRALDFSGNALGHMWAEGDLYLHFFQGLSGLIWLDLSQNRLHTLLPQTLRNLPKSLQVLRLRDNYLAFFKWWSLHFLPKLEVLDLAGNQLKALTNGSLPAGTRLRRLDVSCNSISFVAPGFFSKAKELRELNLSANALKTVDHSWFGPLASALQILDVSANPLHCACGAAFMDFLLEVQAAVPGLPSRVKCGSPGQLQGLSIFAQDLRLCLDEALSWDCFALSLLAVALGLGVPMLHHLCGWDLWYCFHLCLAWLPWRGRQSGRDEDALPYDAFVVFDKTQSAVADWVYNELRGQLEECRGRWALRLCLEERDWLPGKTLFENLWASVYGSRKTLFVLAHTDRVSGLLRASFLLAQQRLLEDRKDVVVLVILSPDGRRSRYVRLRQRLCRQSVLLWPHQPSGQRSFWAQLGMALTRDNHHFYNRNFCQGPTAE
Sequence of human TLR7 (Q9NYK1 27-1049): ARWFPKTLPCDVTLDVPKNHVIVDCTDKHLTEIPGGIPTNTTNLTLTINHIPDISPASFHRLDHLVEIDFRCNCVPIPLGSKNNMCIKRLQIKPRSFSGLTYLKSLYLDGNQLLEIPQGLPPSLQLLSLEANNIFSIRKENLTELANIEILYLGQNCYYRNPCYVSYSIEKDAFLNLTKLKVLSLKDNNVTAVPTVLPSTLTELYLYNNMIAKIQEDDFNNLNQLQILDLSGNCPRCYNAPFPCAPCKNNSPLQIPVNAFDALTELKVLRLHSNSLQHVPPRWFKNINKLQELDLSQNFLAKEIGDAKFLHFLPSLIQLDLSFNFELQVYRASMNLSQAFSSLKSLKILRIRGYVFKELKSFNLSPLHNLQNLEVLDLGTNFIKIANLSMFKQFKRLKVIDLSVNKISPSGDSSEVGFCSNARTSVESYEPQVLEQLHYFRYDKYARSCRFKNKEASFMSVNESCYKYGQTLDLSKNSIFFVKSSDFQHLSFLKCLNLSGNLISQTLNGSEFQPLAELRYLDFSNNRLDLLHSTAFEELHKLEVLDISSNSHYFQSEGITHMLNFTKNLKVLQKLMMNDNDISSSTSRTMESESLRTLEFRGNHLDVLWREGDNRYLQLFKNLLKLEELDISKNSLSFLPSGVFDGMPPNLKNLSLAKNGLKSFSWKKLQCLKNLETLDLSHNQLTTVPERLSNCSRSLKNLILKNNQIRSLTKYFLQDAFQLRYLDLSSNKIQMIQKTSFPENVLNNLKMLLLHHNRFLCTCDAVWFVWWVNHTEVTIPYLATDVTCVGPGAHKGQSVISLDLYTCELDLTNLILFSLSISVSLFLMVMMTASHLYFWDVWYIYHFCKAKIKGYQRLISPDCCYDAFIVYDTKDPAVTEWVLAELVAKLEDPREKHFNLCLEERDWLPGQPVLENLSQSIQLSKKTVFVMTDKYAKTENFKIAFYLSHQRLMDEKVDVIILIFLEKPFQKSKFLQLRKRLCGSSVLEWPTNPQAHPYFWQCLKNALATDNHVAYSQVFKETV
Sequence of human TLR8 (Q9NR97 27-1041): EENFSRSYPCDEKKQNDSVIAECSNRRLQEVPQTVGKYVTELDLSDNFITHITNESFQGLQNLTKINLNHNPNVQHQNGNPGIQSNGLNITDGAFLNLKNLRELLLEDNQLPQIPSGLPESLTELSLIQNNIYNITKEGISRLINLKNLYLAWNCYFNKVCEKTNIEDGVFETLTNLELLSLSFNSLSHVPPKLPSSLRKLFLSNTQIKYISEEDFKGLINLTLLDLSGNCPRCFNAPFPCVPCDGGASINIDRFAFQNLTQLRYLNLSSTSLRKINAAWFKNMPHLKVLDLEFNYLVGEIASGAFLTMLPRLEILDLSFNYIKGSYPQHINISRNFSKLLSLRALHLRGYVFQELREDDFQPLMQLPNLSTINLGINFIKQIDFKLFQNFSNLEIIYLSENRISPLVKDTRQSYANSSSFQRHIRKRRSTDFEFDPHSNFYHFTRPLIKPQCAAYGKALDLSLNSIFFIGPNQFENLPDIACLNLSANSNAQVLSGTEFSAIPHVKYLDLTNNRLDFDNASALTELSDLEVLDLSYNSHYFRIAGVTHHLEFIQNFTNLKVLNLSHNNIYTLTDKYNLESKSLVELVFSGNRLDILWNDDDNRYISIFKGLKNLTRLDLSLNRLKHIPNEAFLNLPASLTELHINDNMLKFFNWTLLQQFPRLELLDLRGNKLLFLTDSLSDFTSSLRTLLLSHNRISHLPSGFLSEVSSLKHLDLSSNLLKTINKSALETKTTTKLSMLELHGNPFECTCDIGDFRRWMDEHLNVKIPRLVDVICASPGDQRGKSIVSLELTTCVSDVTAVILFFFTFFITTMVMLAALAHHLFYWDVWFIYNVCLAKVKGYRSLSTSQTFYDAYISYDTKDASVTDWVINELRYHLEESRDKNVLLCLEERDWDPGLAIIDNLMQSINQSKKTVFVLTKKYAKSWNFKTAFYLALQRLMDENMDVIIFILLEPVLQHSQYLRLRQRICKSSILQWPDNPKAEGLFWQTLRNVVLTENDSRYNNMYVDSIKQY

COc1cc(-c2[nH]c3cnc(C4CCN(C5COC5)CC4)c(F)c3c2C(C)C)cn2ncnc12 [Example 38]
pIC50 (human TLR7): 8.55 | pIC50 (human TLR8; [1]): 7.92 | pIC50 (human TLR9; [2]): 4.88

CCN(C)C1CCC(c2ncc3[nH]c(-c4cc(C)c5ncnn5c4)c(C(C)C)c3c2F)CC1 (centres unmarked) [Example 199]
pIC50 (human TLR7): 9.08 | pIC50 (human TLR8; [1]): 8.70 | pIC50 (human TLR9; [2]): 5.92

CNC(=O)CN1CCC(c2ncc3[nH]c(-c4cc(OC)c5ncnn5c4)c(C(C)C)c3c2F)CC1 [Example 20]
pIC50 (human TLR7): 8.60 | pIC50 (human TLR8; [1]): 8.37 | pIC50 (human TLR9; [2]): 5.18

Cc1cc(-c2[nH]c3cnc(C4CCC(NC5(C)COC5)CC4)c(F)c3c2C(C)C)cn2ncnc12 (centres unmarked) [Example 81]
pIC50 (human TLR7): 9.82 | pIC50 (human TLR8; [1]): 9.21 | pIC50 (human TLR9; [2]): 5.66

COc1cc(-c2[nH]c3cnc(C4CCC(N5CC6(COC6)C5)C4)cc3c2C(C)C)cn2ncnc12 (centres unmarked) [Example 141]
pIC50 (human TLR7): 7.57 | pIC50 (human TLR8; [1]): 7.60 | pIC50 (human TLR9; [2]): 6.32

Cc1c(N2CCC(N3CC4(COC4)C3)CC2)ncc2[nH]c(-c3cc(C)c4ncnn4c3)c(C(C)C)c12 [Example 53]
pIC50 (human TLR7): 9.30 | pIC50 (human TLR8; [1]): 8.70 | pIC50 (human TLR9; [2]): 5.86

Cc1c(-c2[nH]c3cnc(N4CCC(NC5CCOCC5)CC4)c(F)c3c2C(C)C)cn2ncnc2c1C [Example 264]
pIC50 (human TLR7): 9.16 | pIC50 (human TLR8; [1]): 9.80 | pIC50 (human TLR9; [2]): 5.78

COc1cc(-c2[nH]c3cnc(N4CCN(C5CCC5)CC4)c(F)c3c2C(C)C)cn2ncnc12 [Example 391]
pIC50 (human TLR7): 8.85 | pIC50 (human TLR8; [1]): 9.05 | pIC50 (human TLR9; [2]): 5.39

COCCN1CCN(c2ncc3[nH]c(-c4cn5ncnc5c(C)c4C)c(C(C)C)c3c2F)CC1 [Example 424]
pIC50 (human TLR7): 8.20 | pIC50 (human TLR8; [1]): 9.41 | pIC50 (human TLR9; [2]): 4.75

Cc1c(-c2[nH]c3cnc(N4CCN(C(C)C)CC4)c(F)c3c2C(C)C)cn2ncnc2c1C [Example 412]
pIC50 (human TLR7): 8.17 | pIC50 (human TLR8; [1]): 9.54 | pIC50 (human TLR9; [2]): 5.24

Cc1cc(-c2[nH]c3cnc(N4CCC(N5CC6(COC6)C5)CC4)c(F)c3c2C(C)C)cn2ncnc12 [Example 44]
pIC50 (human TLR7): 9.20 | pIC50 (human TLR8; [1]): 9.44 | pIC50 (human TLR9; [2]): 5.56

COc1cc(-c2[nH]c3cnc(N4CCN(CC(=O)N5CCOCC5)C[C@H]4C)c(F)c3c2C(C)C)cn2ncnc12 [Example 448]
pIC50 (human TLR7): 7.55 | pIC50 (human TLR8; [1]): 7.66 | pIC50 (human TLR9; [2]): < 4.30

Cc1c(-c2[nH]c3cnc(N4CCN(C5CCC5)C[C@H]4C)c(F)c3c2C(C)C)cn2ncnc2c1C [Example 458]
pIC50 (human TLR7): 8.60 | pIC50 (human TLR8; [3]): 8.92 | pIC50 (human TLR9; [4]): 4.77

COc1cc(-c2[nH]c3cnc(N4CCC(N(C)C(C)C)CC4)c(C)c3c2C(C)C)cn2ncnc12 [Example 86]
pIC50 (human TLR7): 9.43 | pIC50 (human TLR8; [1]): 9.37 | pIC50 (human TLR9; [2]): 5.95

Cc1c(-c2[nH]c3cnc(C4CCC(NC(C)C)CC4)cc3c2C(C)C)cn2ncnc2c1C (centres unmarked) [Example 318]
pIC50 (human TLR7): 8.22 | pIC50 (human TLR8; [1]): 7.68 | pIC50 (human TLR9; [2]): 6.07

COc1cc(-c2[nH]c3cnc(C4CCC(NCC(C)(C)OC)C4)cc3c2C(C)C)cn2ncnc12 (centres unmarked) [Example 211]
pIC50 (human TLR7): 7.39 | pIC50 (human TLR8; [1]): 7.36 | pIC50 (human TLR9; [2]): 5.65

Cc1cc(-c2[nH]c3cnc(C4CCC(NCC(C)(C)O)CC4)c(F)c3c2C(C)C)cn2ncnc12 (centres unmarked) [Example 164]
pIC50 (human TLR7): 8.21 | pIC50 (human TLR8; [1]): 8.34 | pIC50 (human TLR9; [2]): 5.74

COc1cc(-c2[nH]c3cnc(N4CCN(CC(N)=O)C[C@H]4C)c(F)c3c2C(C)C)cn2ncnc12 [Example 447]
pIC50 (human TLR7): 7.96 | pIC50 (human TLR8; [1]): 7.49 | pIC50 (human TLR9; [2]): < 4.30

COc1cc(-c2[nH]c3cnc(N4CCC(NC5CCOCC5)CC4)cc3c2C(C)C)cn2ncnc12 [Example 321]
pIC50 (human TLR7): 8.55 | pIC50 (human TLR8; [1]): 9.19 | pIC50 (human TLR9; [2]): 6.00

Cc1c(-c2[nH]c3cnc(N4CCN(CC5(C)COC5)CC4)c(F)c3c2C(C)C)cn2ncnc2c1C [Example 410]
pIC50 (human TLR7): 7.82 | pIC50 (human TLR8; [1]): 8.89 | pIC50 (human TLR9; [2]): < 4.30

Cc1c(-c2[nH]c3cnc(N4CCN(CC(=O)N5CCOCC5)CC4)c(F)c3c2C(C)C)cn2ncnc2c1C [Example 423]
pIC50 (human TLR7): 8.27 | pIC50 (human TLR8; [1]): 9.23 | pIC50 (human TLR9; [2]): 4.37

Cc1cc(-c2[nH]c3cnc(N4CCC(NC5(C)COC5)CC4)c(F)c3c2C(C)C)cn2ncnc12 [Example 43]
pIC50 (human TLR7): 9.00 | pIC50 (human TLR8; [1]): 9.22 | pIC50 (human TLR9; [2]): 4.89

Cc1c(-c2[nH]c3cnc(N4CC5(CN(CC6CCC6)C5)C4)c(F)c3c2C(C)C)cn2ncnc2c1C [Example 404]
pIC50 (human TLR7): 7.49 | pIC50 (human TLR8; [1]): 8.40 | pIC50 (human TLR9; [2]): 5.24

COc1cc(-c2[nH]c3cnc(N4CC5(CN(CC6CCC6)C5)C4)c(F)c3c2C(C)C)cn2ncnc12 [Example 375]
pIC50 (human TLR7): 7.77 | pIC50 (human TLR8; [1]): < 5.51 | pIC50 (human TLR9; [2]): 5.14

CCN(C)C1CCN(c2ncc3[nH]c(-c4cn5ncnc5c(C)c4C)c(C(C)C)c3c2C)CC1 [Example 55]
pIC50 (human TLR7): 8.89 | pIC50 (human TLR8; [1]): 8.89 | pIC50 (human TLR9; [2]): 6.11

CCN(C)C1CCC(c2cc3c(C(C)C)c(-c4cc(OC)c5ncnn5c4)[nH]c3cn2)C1 (centres unmarked) [Example 249]
pIC50 (human TLR7): 7.92 | pIC50 (human TLR8; [1]): 7.92 | pIC50 (human TLR9; [2]): 5.84

Cc1c(-c2[nH]c3cnc(N4CCN(CC(N)=O)CC4)c(F)c3c2C(C)C)cn2ncnc2c1C [Example 429]
pIC50 (human TLR7): 8.03 | pIC50 (human TLR8; [1]): 8.64 | pIC50 (human TLR9; [2]): < 4.30

Cc1cc(-c2[nH]c3cnc(C4CCN(C(=O)CN(C)C)CC4)cc3c2C(C)C)cn2ncnc12 [Example 5, 2-(dimethylamino)-1-(4-(3-isopropyl-2-(8-methyl-[1,2,4]triazolo[1,5-a]pyridine-6-yl)-1H-pyrrolo[2,3-c]pyridin-5-yl)piperidin-1-yl)ethan-1-one]
pIC50 (human TLR7): 8.02 | pIC50 (human TLR8; [1]): 7.00 | pIC50 (human TLR9; [2]): 6.60

Cc1cc(-c2[nH]c3cnc(N4CCC(N(C)CC(N)=O)CC4)c(F)c3c2C(C)C)cn2ncnc12 [Example 158]
pIC50 (human TLR7): 8.85 | pIC50 (human TLR8; [1]): 8.68 | pIC50 (human TLR9; [2]): 4.76

Cc1c(N2CCC(NC(C)C)CC2)ncc2[nH]c(-c3cc(C)c4ncnn4c3)c(C(C)C)c12 [Example 236]
pIC50 (human TLR7): 9.18 | pIC50 (human TLR8; [1]): 8.96 | pIC50 (human TLR8; [3]): 8.96 | pIC50 (human TLR9; [2]): 6.03 | pIC50 (human TLR9; [4]): 6.03

COc1cc(-c2[nH]c3cnc(N4CCN(CC(F)(F)F)C[C@H]4C)c(F)c3c2C(C)C)cn2ncnc12 [Example 449]
pIC50 (human TLR7): 7.43 | pIC50 (human TLR8; [1]): 6.77 | pIC50 (human TLR9; [2]): < 4.30

CNC(=O)CN(C)C1CCC(c2cc3c(C(C)C)c(-c4cc(OC)c5ncnn5c4)[nH]c3cn2)CC1 (centres unmarked) [Example 338]
pIC50 (human TLR7): 8.47 | pIC50 (human TLR8; [1]): 7.52 | pIC50 (human TLR9; [2]): 5.96

COc1cc(-c2[nH]c3cnc(N4CCN(C5COC5)CC4)c(F)c3c2C(C)C)cn2ncnc12 [Example 382]
pIC50 (human TLR7): 8.35 | pIC50 (human TLR8; [1]): 7.74 | pIC50 (human TLR9; [2]): < 4.30

CCN(C)C1CCC(c2ncc3[nH]c(-c4cn5ncnc5c(C)c4C)c(C(C)C)c3c2F)CC1 (centres unmarked) [Example 263]
pIC50 (human TLR7): 8.72 | pIC50 (human TLR8; [1]): 8.39 | pIC50 (human TLR9; [2]): 5.25

Cc1cc(-c2[nH]c3cnc(C4CCC(NC(C)C)CC4)c(F)c3c2C(C)C)cn2ncnc12 (centres unmarked) [Example 230]
pIC50 (human TLR7): 9.39 | pIC50 (human TLR8; [3]): 9.11 | pIC50 (human TLR9; [4]): 5.77

COc1cc(-c2[nH]c3cnc(C4CCC(NCC(C)(C)C)C4)cc3c2C(C)C)cn2ncnc12 (centres unmarked) [Example 144]
pIC50 (human TLR7): 7.85 | pIC50 (human TLR8; [1]): 7.85 | pIC50 (human TLR9; [2]): 5.90

Cc1cc(-c2[nH]c3cnc(C4CCC(N5CC6(COC6)C5)CC4)c(F)c3c2C(C)C)cn2ncnc12 (centres unmarked) [Example 133]
pIC50 (human TLR7): 9.28 | pIC50 (human TLR8; [1]): 8.92 | pIC50 (human TLR9; [2]): 5.87
